Measured values: article PMC10117725, “From an Hsp90 - binding protein to a peptide drug” (microLife, 2022)
Where no end group is shown, it is not given here.

Key:
MONO-MAC-6 (MM6) cells = assay: MTT cytotoxicity in MM6 cells; format: cell-based, human; conditions: 24 h
Protocol: MTT (3-(4,5-dimethylthiazol-2-yl)-2,5-diphenyl tetrazolium bromide) assay was employed to analyze the cytotoxicity of peptides and geldanamycin to the cells. 5 × 10^5 cells were seeded in a 96 flat bottom well plate and incubated for 2.5 or 24 h at 37°C with 5% CO2. The cells were then treated with increasing concentration (0 to 200 µM) of peptides or geldanamycin for 24 h. After the incubation, 10 μl of the MTT labelling reagent is added to each well to attain a final concentration 0.5 mg/ml, followed by 4 h incubation. Metabolically active cells convert the yellow tetrazolium salt to purple formazan crystals, which were solubilized using the solubilization solution (DMSO) and measured for absorbance at λmax/λref–570/690 nm (Saising et al. [2018]).

[1] = test system: human peripheral blood mononuclear cells (PBMCs); assay: Cytokine induction in PBMCs (bead-based immunoassay); format: cell-based; conditions: IL-6, IL10, IL-12p70, IL12-p40, IL-23, TNFα, IL-1ß, IL-1RA, IP-10, TARC; 20 h
Protocol: Human peripheral blood mononuclear cells (PBMCs) from buffy coat blood samples of healthy donors were stimulated with the indicated doses of L15 and L13 for 20 h. For the subsequent bead-based immunoassay, the cell culture supernatants of a total of four buffy coats per immunoassay were used. Each of the stimulations was performed in biological duplicates. The secreted cytokines were then identified and quantified using the immunofluorescent bead-based immunoassay LEGENDplex® Human Macrophage/Microglia Panel (13-plex) and the corresponding Data Analysis Software from BioLegend. Muramyl Dipeptide (MDP) which activates the NOD-2 receptors was used as the positive control.

S. aureus Newman = assay: Mouse S. aureus Newman bacteremia model; format: in vivo, NMRI mice
Protocol: About 8- to 10-week-old female NMRI mice were purchased from Envigo (Venray, the Netherlands) and stored under standard temperature, light, and nutrition conditions in the animal facility of the Department of Rheumatology and Inflammation Research, University of Gothenburg. […] To study the effect of L15 on S. aureus bacteremia two separate experiments were performed. The mice were treated intraperitoneally with L15 (10 mg/kg) in 200 µl of PBS every 12 h, starting 2 h before inoculation with bacteria and continuing until the animals were sacrificed. Mice were challenged with septic dose of 2 × 10^6 CFU/mouse of S aureus Newman. To induce the S. aureus systemic infection in NMRI mice, 0.2 ml of S. aureus Newman suspension was inoculated intravenously into the tail vein of the mice. During the course of the experiments, the mice were regularly weighed until the mice were sacrificed. After sacrificing the mice at day 7, kidneys from mice were aseptically removed, homogenised, serially diluted with PBS and enumerated to quantify the bacterial CFUs.

Sequence: GHYFVTTFY [L13]
- percentage of viable cells, MM6, 1 µM (MONO-MAC-6 (MM6) cells; 1 µM): 106.71 ± 6.40%
- percentage of viable cells, MM6, 200 µM (MONO-MAC-6 (MM6) cells; 200 µM): 82.43 ± 8.59%

Sequence: TAKGHYFVTTFYRNG [L15]
- cytokine inducing activity in PBMCs [1]: relatively inert
- survival during the 7-day observation period (S. aureus Newman; L15 10 mg/kg i.p. every 12 h, 40% of the control group died): all mice treated with L15 survived
- bacterial load in the kidneys (S. aureus Newman; L15 10 mg/kg i.p. every 12 h, day 7, vs PBS control): No significant difference
- weight loss of infected mice (S. aureus Newman; L15 10 mg/kg i.p. every 12 h from 2 h before i.v. 2 × 10^6 CFU/mouse, 7 days, vs PBS control): significantly reduced
- reduction of lethality of S. aureus in the mouse model (S. aureus Newman; mouse bacteremia model): about 40%
